Measurements published in publication PMC5584805 (Biochemistry, 2016).
Where “and” joins values, the source holds several entries; their conditions need not be identical. Identical values can stand only once. Like-named read-outs stand apart in the source and are kept apart here. Marks after values point to notes of the source that are not given here.

Tests used:
[1] = target: T1, Escherichia coli CTP synthetase (EcCTPS) (Escherichia coli, UniProt P0A7E5); assay: CTP synthesis assay; settings: for IC50^ox/IC50^red: ratio of oxidized to reduced form IC50, standard conditions; for Kd: best fit; for apparent kcat at 2 μM EcCTPS: annealing at 40 μM EcCTPS; for EC50: EC50 (activation); for Ki: Ki (two-site model)
[2] = test system: CTPS glutamine hydrolysis; settings: low concentrations (0–200 μM); cited from earlier work
E277R EcCTPS = E277R EcCTPS (Escherichia coli, UniProt P0A7E5, E277R); assay: CTP synthesis assay, filament-blocking mutant E277R EcCTPS; format: biochemical
[3] = target: T1, Escherichia coli CTP synthetase (EcCTPS); settings: read-out: IC50 (inhibition of CTP synthesis); higher GTP concentrations; cited from earlier work
EcCTPS = EcCTPS (Escherichia coli, UniProt P0A7E5); assay: Ammonia-dependent CTP synthesis; format: biochemical; settings: Figure S6
[4] = inhibitor alone, activating GTP (50 or 200 μM)
[5] = standard: 200 nM EcCTPS, 1.5 mM ATP, 600 μM UTP, 10 mM glutamine, 200 μM GTP (unless GTP titrated), linear extrapolation
[6] = IC50, standard: 200 nM EcCTPS, 1.5 mM ATP, 600 μM UTP, 10 mM glutamine, 200 μM GTP (unless GTP titrated), linear extrapolation
[7] = 100 nM enzyme, other substrates saturating, 200 μM GTP
[8] = limiting substrate titrated, other substrates saturating, 200 μM GTP, 37 °C
[9] = two ligands present (second inhibitor)

T1 sequence (P0A7E5 whole entry): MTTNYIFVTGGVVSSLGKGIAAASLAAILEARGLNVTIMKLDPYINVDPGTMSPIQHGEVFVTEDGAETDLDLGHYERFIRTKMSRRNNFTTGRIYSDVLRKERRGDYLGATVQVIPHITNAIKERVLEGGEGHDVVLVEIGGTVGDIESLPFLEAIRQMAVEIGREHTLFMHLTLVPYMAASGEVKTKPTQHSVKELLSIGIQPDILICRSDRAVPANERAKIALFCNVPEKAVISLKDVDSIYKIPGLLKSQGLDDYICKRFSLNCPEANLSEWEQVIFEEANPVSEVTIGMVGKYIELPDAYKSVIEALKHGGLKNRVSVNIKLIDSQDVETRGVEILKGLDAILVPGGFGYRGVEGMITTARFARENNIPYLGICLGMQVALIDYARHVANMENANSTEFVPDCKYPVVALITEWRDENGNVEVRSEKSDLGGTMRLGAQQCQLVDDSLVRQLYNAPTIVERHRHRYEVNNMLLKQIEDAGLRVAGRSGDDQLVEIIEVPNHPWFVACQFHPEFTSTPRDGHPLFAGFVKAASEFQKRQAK
Chain of E277R EcCTPS (P0A7E5 whole entry E277R): as the sequence (P0A7E5 whole entry) above, with E277R counted along it
Chain of EcCTPS (P0A7E5 whole entry): as the sequence (P0A7E5 whole entry) above

CN1C=CCC(C(N)=O)=C1 [1MDHN, 1-methyl 1,4-dihydronicotinamide]
increase of inhibition potency ([1]; by 400 μM CTP): more than 2 fold
K2/K1 (sequential binding model) [1, 4]: 4–40
K3/K2 (sequential binding model) [1, 4]: 0.2–0.8
IC50^ox/IC50^red [1]: >28
IC50 [1, 5]: 140 ± 10 µM

C[n+]1cccc(C(N)=O)c1 [1MeN, 1-methylnicotinamide]
inhibition at 3000 µM [1]: < 25%
IC50 [1, 6]: ~4000 µM

Nc1ncnc2c1ncn2[C@@H]1O[C@H](COP(=O)(O)OP(=O)(O)O)[C@@H](O)[C@H]1O [ADP, adenosine 5’-diphosphate]
inhibition at 3000 µM [1]: 35%
IC50 [1, 6]: ~4500 µM

Nc1ncnc2c1ncn2[C@@H]1O[C@H](COP(=O)(O)OP(=O)(O)OP(=O)(O)O)[C@@H](O)[C@H]1O [ATP, adenosine 5’-triphosphate]
Hill coeff, nH [1, 7]: 1.7 ± 0.3
S0.5 [1, 7]: 126 ± 13 µM
S0.5 ([1]; 50 μM GTP): 81 ± 5 µM
Hill coeff, nH ([1]; 60 μM UTP): 1.9 ± 0.4 (5)
S0.5 ([1]; 60 μM UTP): 310 ± 20 µM
S0.5 ([1]; 500 μM GTP): 155 ± 25 µM
Hill coeff, nH [1, 8]: 1.7 ± 0.2 (18)^c

Nc1ccn([C@@H]2O[C@H](COP(=O)(O)OP(=O)(O)OP(=O)(O)O)[C@@H](O)[C@H]2O)c(=O)n1 [CTP, cytidine-5’-triphosphate]
inhibition at 750 µM [1]: 85%
limiting slope of Hill plot, high concentration range ([1]; 50 μM UTP, 100 nM EcCTPS): −1.9 ± 0.3
limiting slope of Hill plot, low concentration range ([1]; 50 μM UTP, 100 nM EcCTPS): −0.6 ± 0.2
IC50 ([1]; IC50, 50 μM GTP, otherwise standard): 620 ± 30 µM
IC50 ([1]; IC50, 500 μM GTP, otherwise standard): 220 ± 60 µM
IC50 [1, 6]: ~370 µM and 370 µM
Kd ([1]; K1 (four-site sequential binding model), standard conditions): 446 µM
Kd ([1]; K2 (four-site sequential binding model), standard conditions): 2120 µM
Kd ([1]; K3 (four-site sequential binding model), standard conditions): 1170 µM
Kd ([1]; K4 (four-site sequential binding model), standard conditions): 7.5 µM
increase of inhibition potency ([1]; by 500 μM NADH): 2.3 fold
IC50 ([1]; fit IC50 value (four-site sequential binding model), standard conditions): 385 µM
K2/K1 (sequential binding model) [1, 4]: 4–40
K3/K2 (sequential binding model) [1, 4]: 0.2–0.8
IC50 relative to UTP concentration (fold lower) ([1]; saturating UTP (600 μM)): 1.6 fold
average slope of Hill plot ([1]; standard conditions): −2.0
K2/K1 (sequential binding model) [1, 9]: 0.4–0.8
K3/K2 (sequential binding model) [1, 9]: 40–250

Nc1nc2c(ncn2[C@@H]2O[C@H](COP(=O)(O)OP(=O)(O)OP(=O)(O)O)[C@@H](O)[C@H]2O)c(=O)[nH]1 [GTP, guanosine-5’-triphosphate]
activation of glutamine hydrolysis [2]: up to 50 fold
kact (two-site activation/inhibition model) ([1]; 200 nM WT, no other inhibitor): 10.7 s⁻¹
ninh (two-site model) ([1]; 200 nM WT, no other inhibitor): 4.7
kact (two-site model) ([1]; 4 μM WT): 4.7 s⁻¹
ninh (two-site model) ([1]; 4 μM WT): 4.1
enzyme concentration for 50% autoinhibition ([1]; 50 μM GTP): 6.1 µM
apparent kcat at 2 μM EcCTPS ([1]; 50 μM GTP): 2.9 s⁻¹
enzyme concentration for 50% autoinhibition ([1]; 200 μM GTP): 3.9 µM
apparent kcat at 2 μM EcCTPS ([1]; 200 μM GTP): 5.0 ± 0.1 s⁻¹
enzyme concentration for 50% autoinhibition ([1]; 500 μM GTP): 2.8 µM
apparent kcat at 2 μM EcCTPS ([1]; 500 μM GTP): 2.7 ± 1.0 s⁻¹
EC50 ([1]; 4 μM WT EcCTPS): 27 ± 7 µM
EC50 ([1]; standard: 200 nM EcCTPS, 1.5 mM ATP, 600 μM UTP, 10 mM glutamine): ~38 µM and 38 µM
IC50 ([1]; IC50, 4 μM WT EcCTPS): 455 ± 46 µM
IC50 [1, 6]: 540 ± 60 µM
Ki ([1]; 200 nM WT, no other inhibitor): 301 µM
Ki ([1]; 4 μM WT): 221 µM
optimal GTP concentration ([1]; in presence of 500 μM NADH): approximately 100 μM
concentration of maximum activation ([1]; standard conditions): ~ 200 μM
EC50 (E277R EcCTPS): 46 ± 6 µM
IC50 (E277R EcCTPS): 697 ± 4 µM
Ki (E277R EcCTPS): 342 µM
kact (two-site model) (E277R EcCTPS; 200 nM E277R): 10.7 s⁻¹
ninh (two-site model) (E277R EcCTPS; 200 nM E277R): 3.8
IC50 [3]: ~500 µM

NC(=O)C1=CN([C@@H]2O[C@H](COP(=O)(O)OP(=O)(O)OC[C@H]3O[C@@H](n4cnc5c(N)ncnc54)[C@H](O)[C@@H]3O)[C@@H](O)[C@H]2O)C=CC1 [NADH, 1,4 dihydronicotinamide adenine dinucleotide (reduced)]
IC50 ([1]; 50 μM GTP, otherwise standard): 770 ± 30 µM
dependence of inhibition potency on enzyme concentration ([1]; Figure S4): independent of enzyme concentration from 50 to 400 nM
inhibition ([1]; at 1250 μM, standard conditions): greater than 95%
increase of inhibition potency ([1]; by 400 μM CTP): ~ 2.1 fold
K2/K1 (sequential binding model) [1, 4]: 4–40
K3/K2 (sequential binding model) [1, 4]: 0.2–0.8
IC50^ox/IC50^red [1]: 3.7
IC50 [1, 5]: 470 ± 40 µM
K2/K1 (sequential binding model) [1, 9]: 0.4–0.8
K3/K2 (sequential binding model) [1, 9]: 40–250
dose–response of E277R compared with wild-type (E277R EcCTPS; 200 nM enzyme, 0–1500 μM NADH): no significant differences between wild-type and mutant
effect on ammonia-dependent synthesis (EcCTPS): inhibits

NC(=O)C1=CN([C@@H]2O[C@H](COP(=O)(O)OP(=O)(O)OC[C@H]3O[C@@H](n4cnc5c(N)ncnc54)[C@H](OP(=O)(O)O)[C@@H]3O)[C@@H](O)[C@H]2O)C=CC1 [NADPH, 1,4 dihydronicotinamide adenine dinucleotide 2’-phosphate (reduced)]
IC50^ox/IC50^red [1]: 2.8
IC50 [1, 5]: 450 ± 20 µM

NC(=O)c1ccc[n+]([C@@H]2O[C@H](COP(=O)([O-])OP(=O)(O)OC[C@H]3O[C@@H](n4cnc5c(N)ncnc54)[C@H](OP(=O)(O)O)[C@@H]3O)[C@@H](O)[C@H]2O)c1 [NADP^+, nicotinamide adenine dinucleotide 2’-phosphate (oxidized)]
IC50 [1, 5]: 1280 ± 50 µM

NC(=O)c1ccc[n+]([C@@H]2O[C@H](COP(=O)([O-])OP(=O)(O)OC[C@H]3O[C@@H](n4cnc5c(N)ncnc54)[C@H](O)[C@@H]3O)[C@@H](O)[C@H]2O)c1 [NAD^+, nicotinamide adenine dinucleotide (oxidized)]
fold less effective inhibition than NADH ([1]; standard conditions): ~ 3 fold
IC50 [1, 5]: 1700 ± 70 µM

O=c1ccn([C@@H]2O[C@H](COP(=O)(O)OP(=O)(O)OP(=O)(O)O)[C@@H](O)[C@H]2O)c(=O)[nH]1 [UTP, uridine-5’- triphosphate]
Hill coeff, nH [1, 7]: 1.3 ± 0.2
S0.5 [1, 7]: 57 ± 8 µM
Hill coeff, nH ([1]; 150 μM ATP (subsaturating)): 1.8 ± 0.1 (6)
S0.5 ([1]; 150 μM ATP (subsaturating)): 200 ± 40 µM
Hill coeff, nH [1, 8]: 1.4 ± 0.3 (23)^b

NC(=O)CC[C@H](N)C(=O)O [glutamine]
Hill coeff, nH [1, 7]: 1.1 ± 0.1 (11)
S0.5 [1, 7]: 360 ± 20^e μM
